What follows are compounds tested against T1, estrogen receptor (Rattus norvegicus, UniProt P06211) (assay: Competitive ER binding assay with [3H]E2 in rat uterine cytosol (NCTR)). Conditions: not given.
T1 construct: in rat uterine cytosol, which was obtained from ovariectomized uteri of Sprague-Dawley rats; from tissue; host or cells: uterine cytosol of ovariectomized Sprague-Dawley rats
T1 sequence (P06211 1-600): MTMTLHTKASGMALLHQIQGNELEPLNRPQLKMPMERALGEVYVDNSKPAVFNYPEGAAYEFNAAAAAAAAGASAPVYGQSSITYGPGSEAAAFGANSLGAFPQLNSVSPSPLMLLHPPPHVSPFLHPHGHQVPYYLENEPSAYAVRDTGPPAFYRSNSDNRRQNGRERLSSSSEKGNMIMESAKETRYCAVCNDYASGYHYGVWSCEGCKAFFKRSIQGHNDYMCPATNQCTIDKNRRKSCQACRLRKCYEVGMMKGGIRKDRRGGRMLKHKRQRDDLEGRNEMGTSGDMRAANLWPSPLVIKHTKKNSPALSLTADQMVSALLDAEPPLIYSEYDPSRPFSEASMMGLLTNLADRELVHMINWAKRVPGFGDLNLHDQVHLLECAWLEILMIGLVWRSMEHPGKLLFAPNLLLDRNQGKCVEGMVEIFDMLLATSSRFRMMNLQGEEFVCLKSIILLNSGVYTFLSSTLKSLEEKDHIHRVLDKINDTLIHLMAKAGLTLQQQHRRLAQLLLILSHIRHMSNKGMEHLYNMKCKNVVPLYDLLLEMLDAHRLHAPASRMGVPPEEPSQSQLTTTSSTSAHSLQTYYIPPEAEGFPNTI
Description: The log relative binding activity (RBA) data for these 130 structurally diverse compounds was used to train the CoSCoSA models. The data was produced at NCTR using a competitive ER binding assay with radiolabeled estradiol ([^3H]E2) in rat uterine cytosol, which was obtained from ovariectomized uteri of Sprague-Dawley rats. […] For each of the 130 compounds, the ^13C 2D ^13C—^13C COSY NMR experiment was simulated using the ACD Labs CNMR version 5.0 2D predictor software. The COSY NMR spectra could be saved as two tables per compound.
4-hydroxytamoxifen was tested, and the “Exp. Log(RBA)” value was 2.24. In the case of `C[Si](C)(O[Si](C)(C)c1ccccc1)c1ccccc1` [1,3-diphenyltetramethyldisiloxane], the “Exp. Log(RBA)” value is reported as −3.16. With `O=C(C(=O)c1ccc(O)cc1O)c1ccc(O)cc1O` [2,2′,4,4′-tetrahydroxybenzil] the “Exp. Log(RBA)” value was −0.68. In the case of `Oc1ccc(Cl)cc1Cc1cc(Cl)ccc1O` [2,2′-methylenebis(4-chlorophenol)], the “Exp. Log(RBA)” value is reported as −2.45. With `Clc1ccc(-c2ccccc2Cl)cc1` [2,4′-dichlorobiphenyl] the “Exp. Log(RBA)” value was −3.61. `Oc1ccc(-c2cc(Cl)ccc2Cl)cc1` [2,5-dichloro-4′-biphenylol] was tested, and the “Exp. Log(RBA)” value was −1.44. `C[C@]12CC[C@@H]3c4cc(O)c(O)cc4CC[C@H]3[C@@H]1CC[C@@H]2O` [2-hydroxyestradiol] was tested, and the “Exp. Log(RBA)” value was 1.47. For `O=C(/C=C/c1ccc(O)cc1)c1ccc(O)cc1O` [2′,4,4′-trihydroxychalcone], the “Exp. Log(RBA)” value was −1.26. For `Oc1cccc(-c2ccccc2)c1` [3-phenylphenol], the “Exp. Log(RBA)” value was −3.44. `C[C@]12CC[C@@H](O)C[C@@H]1CC[C@@H]1[C@@H]2CC[C@]2(C)[C@@H](O)CC[C@@H]12` [3α-androstanediol] was tested, and the “Exp. Log(RBA)” value was −2.67. `C[C@]12CC[C@H](O)C[C@@H]1CC[C@@H]1[C@@H]2CC[C@]2(C)[C@@H](O)CC[C@@H]12` [3β-androstanediol] was tested, and the “Exp. Log(RBA)” value was −0.92. In the case of `O=S(=O)(c1ccc(O)cc1)c1ccc(O)cc1` [4,4′-sulfonyldiphenol], the “Exp. Log(RBA)” value is reported as −3.07. In the case of `Oc1ccc(OCc2ccccc2)cc1` [4-benzyloxyphenol], the “Exp. Log(RBA)” value is reported as −3.44. `CCCCCCCCCCCCc1ccc(O)cc1` [4-dodecylphenol] was tested, and the “Exp. Log(RBA)” value was −1.73. For `C[C@]12CC[C@@H]3c4ccc(O)c(O)c4CC[C@H]3[C@@H]1CC[C@@H]2O` [4-hydroxyestradiol], the “Exp. Log(RBA)” value was 2.24. In the case of `CCCCCCCCCc1ccc(O)cc1` [4-nonylphenol], the “Exp. Log(RBA)” value is reported as −1.53. `CCC(C)(C)c1ccc(O)cc1` [4-tert-amylphenol] was tested, and the “Exp. Log(RBA)” value was −3.26. For `CC(C)(C)c1ccc(O)cc1` [4-tert-butylphenol], the “Exp. Log(RBA)” value was −3.61. In the case of `C[C@]12CC[C@@H]3c4ccc(O)cc4C[C@@H](CCCCCCCCC[S+]([O-])CCCC(F)(F)C(F)(F)F)[C@H]3[C@@H]1CC[C@@H]2O` (stereo partly shown) [ICI182780], the “Exp. Log(RBA)” value is reported as 1.57. With `O=C1C=CC(=C(c2ccc(O)cc2)c2ccc(O)cc2)C=C1` [aurin] the “Exp. Log(RBA)” value was −1.5. With `O=c1cc(-c2ccccc2)oc2cc(O)c(O)c(O)c12` [baicalein] the “Exp. Log(RBA)” value was −3.35. For `Oc1ccc(Cc2ccc(O)cc2)cc1` [bis-(4-hydroxyphenyl)methane], the “Exp. Log(RBA)” value was −3.02. For `CCC(C)(c1ccc(O)cc1)c1ccc(O)cc1` [bisphenol B], the “Exp. Log(RBA)” value was −1.07. `O=C(/C=C/c1ccccc1)c1ccccc1` [chalcone] was tested, and the “Exp. Log(RBA)” value was −2.82. `O=c1c(-c2ccc(O)cc2)coc2cc(O)ccc12` [daidzein] was tested, and the “Exp. Log(RBA)” value was −1.65. For `C/C=C(/C(=C/C)c1ccc(O)cc1)c1ccc(O)cc1` [dienestrol], the “Exp. Log(RBA)” value was 1.57. For `COc1cc(C(=C(Cl)Cl)c2ccc(O)cc2)ccc1O` [dihydroxymethoxychlorolefin], the “Exp. Log(RBA)” value was 0.42. In the case of `CC(CCC(=O)O)(c1ccc(O)cc1)c1ccc(O)cc1` [diphenolic acid], the “Exp. Log(RBA)” value is reported as −3.13. For `CC/C(=C(/c1ccc(OCCN(C)C)cc1)c1cccc(O)c1)c1ccccc1` [droloxifene], the “Exp. Log(RBA)” value was 1.18. `Oc1ccc([C@H]2COc3cc(O)ccc3C2)cc1` [equol] was tested, and the “Exp. Log(RBA)” value was −0.82. For `CC[C@H](c1ccc(O)cc1)[C@@H](CC)c1ccc(O)cc1` [meso-hexestrol], the “Exp. Log(RBA)” value was 2.48. `C#C[C@]1(O)CC[C@H]2[C@@H]3CCc4cc(OC)ccc4[C@H]3CC[C@@]21C` [mestranol] was tested, and the “Exp. Log(RBA)” value was 0.35.

Same assay, conditions: relative binding affinity vs 17-β-estradiol (RBA 100), rat uterine cytosol, 130 compound training set
For “4-ethyl-7-OH-(p-meoxyphenol)-dihydro-1-benzopyran-2-one”, the “Exp. Log(RBA)” value was −0.05. `C[C@]12CC[C@@H]3c4ccc(O)cc4[C@@H](O)C[C@H]3[C@@H]1CC[C@@H]2O` [1,3,5-Estratrien-3,6α-17β-triol] was tested, and the “Exp. Log(RBA)” value was −0.15. `Oc1ccc(-c2cc(Cl)c(Cl)c(Cl)c2Cl)cc1` [2,3,4,5-tetraCl-4′-biphenylol] was tested, and the “Exp. Log(RBA)” value was −0.64. With `O=C(c1ccccc1)c1ccc(O)cc1O` [2,4-dihyroxybenzophenone] the “Exp. Log(RBA)” value was −2.61. For `CCC(c1ccc(O)cc1)C(CC)c1c(C)cc(O)cc1C` (stereo not shown) [2,6-dimethylhexestrol], the “Exp. Log(RBA)” value was 1.11. For `Oc1ccc(-c2ccccc2)c(Cl)c1` [2-Cl-4-biphenylol], the “Exp. Log(RBA)” value was −2.77. `Oc1c(Cl)cc(-c2cc(Cl)c(O)c(Cl)c2)cc1Cl` [3,3′,5,5′-tetraCl-4,4′-biphenyldiol] was tested, and the “Exp. Log(RBA)” value was −3.25. For `CCC(c1ccc(O)c(O)c1)C(CC)c1ccc(O)c(O)c1` (stereo not shown) [3,3′-dihydroxyhestrol], the “Exp. Log(RBA)” value was 1.19. With `O=c1c(O)c(-c2ccc(O)cc2)oc2ccc(O)cc12` [3,6,4′-trihydroxyflavone] the “Exp. Log(RBA)” value was −0.35. For `C[C@]12CC[C@@H]3c4ccccc4CC[C@H]3[C@@H]1CC[C@@H]2O` [3-deoxyestradiol], the “Exp. Log(RBA)” value was −0.3. With `C[C@]12CC[C@@H]3c4ccccc4CC[C@H]3[C@@H]1CCC2=O` [3-deoxyestrone] the “Exp. Log(RBA)” value was −2.2. In the case of `CCc1cccc(O)c1` [3-ethylphenol], the “Exp. Log(RBA)” value is reported as −3.87. For `COc1ccc2c(c1)CC[C@@H]1[C@@H]2CC[C@]2(C)[C@@H](O)[C@H](O)C[C@@H]12` [3-methylestriol], the “Exp. Log(RBA)” value was −1.65. `O=c1c(-c2ccc(O)c(O)c2)coc2cc(O)ccc12` [3′,4′,7-trihydroxyisoflavone] was tested, and the “Exp. Log(RBA)” value was −2.35. With `O=C1CC(c2cccc(O)c2)Oc2ccccc21` (stereo not shown) [3′-OH-flavanone] the “Exp. Log(RBA)” value was −2.78. With `Oc1ccc(CCc2ccc(O)cc2)cc1` [4,4′-(1,2-ethanediyl)bisphenol] the “Exp. Log(RBA)” value was −1.44. For `Oc1ccc(C=Cc2ccc(O)cc2)cc1` [4,4′-dihroxystilbene], the “Exp. Log(RBA)” value was −0.55. `O=C(c1ccc(O)cc1)c1ccc(O)cc1` [4,4′-dihydroxybenzophenone] was tested, and the “Exp. Log(RBA)” value was −2.46. In the case of `O=c1cc(-c2ccc(O)cc2)oc2ccc(O)cc12` [4,6-dihydroxyflavone], the “Exp. Log(RBA)” value is reported as −0.82. For `Cc1cc(O)ccc1Cl` [4-Cl-3-methylphenol], the “Exp. Log(RBA)” value was −3.38. `Oc1ccc(-c2ccc(Cl)cc2)cc1` [4-Cl-4′-biphenylol] was tested, and the “Exp. Log(RBA)” value was −2.18. With `O=C(/C=C/c1ccc(O)cc1)c1ccccc1` [4-OH-chalcone] the “Exp. Log(RBA)” value was −2.43. In the case of `CCCCCCCOc1ccc(O)cc1` [4-heptyloxyphenol], the “Exp. Log(RBA)” value is reported as −2.88. `Oc1ccc(CCc2ccccc2)cc1` [4-phenethylphenol] was tested, and the “Exp. Log(RBA)” value was −2.69. For `O=C(/C=C/c1ccccc1)c1ccc(O)cc1` [4′-OH-chalcone], the “Exp. Log(RBA)” value was −2.43. For `O=C1CC(c2ccc(O)cc2)Oc2ccccc21` (stereo not shown) [4′-hydroxyflavanone], the “Exp. Log(RBA)” value was −2.65. For `O=C1CC(c2ccccc2)Oc2ccc(O)cc21` (stereo not shown) [6-hydroxyflavanone], the “Exp. Log(RBA)” value was −3.05. For `O=c1cc(-c2ccccc2)oc2ccc(O)cc12` [6-hydroxyflavone], the “Exp. Log(RBA)” value was −3.41. `C[C@@]12CCC[C@H]1[C@@H]1CCc3cc(O)ccc3[C@H]1CC2` [17-deoxyestradiol] was tested, and the “Exp. Log(RBA)” value was 1.14. In the case of `CCCCN(C)C(=O)CCCCCCCCCC[C@@H]1Cc2cc(O)ccc2[C@H]2CC[C@]3(C)[C@@H](O)CC[C@H]3[C@H]12` [ICI164384], the “Exp. Log(RBA)” value is reported as 1.16. In the case of `O=C(OCc1ccccc1)c1ccc(O)cc1` [benzyl-4-hydroxybenzoate], the “Exp. Log(RBA)” value is reported as −2.54. For `COc1ccc(-c2coc3cc(O)cc(O)c3c2=O)cc1` [biochanin A], the “Exp. Log(RBA)” value was −2.37. `CC(C)(c1ccc(O)cc1)c1ccc(O)cc1` [bisphenol A] was tested, and the “Exp. Log(RBA)” value was −2.11. With `CC/C(=C(/CC)c1ccc(OC)cc1)c1ccc(OC)cc1` [dietheylstilbestrol dimethyl ether] the “Exp. Log(RBA)” value was −1.25. For `CC/C(=C(/CC)c1ccc(OC)cc1)c1ccc(O)cc1` [diethylstilbestrol monomethyl ether], the “Exp. Log(RBA)” value was 1.31. With `C/C(=C(/C)c1ccc(O)cc1)c1ccc(O)cc1` [dimethylstibestrol] the “Exp. Log(RBA)” value was 1.16. For `CC[C@H]1c2ccc3cc(OC)ccc3c2CC[C@@]1(C)C(=O)O` [doisynoestrol], the “Exp. Log(RBA)” value was −2.74. With `CCOC(=O)c1ccc(O)cc1` [ethyl-4-hydrobenzoate] the “Exp. Log(RBA)” value was −3.22. For `O=c1c(O)c(-c2ccc(O)c(O)c2)oc2cc(O)ccc12` [fisetin], the “Exp. Log(RBA)” value was −2.35. With `CCCCCCCOC(=O)c1ccc(O)cc1` [heptyl-4-hydroxybenzoate] the “Exp. Log(RBA)” value was −2.09. For `COC(=O)c1ccc(O)cc1` [methyl-4-hydrobenzoate], the “Exp. Log(RBA)” value was −3.44. With `COc1ccc(C(c2ccc(O)cc2)C(Cl)(Cl)Cl)cc1` (stereo not shown) [monohydroxymethoxychlor] the “Exp. Log(RBA)” value was −0.89. In the case of `COc1ccc(C(=C(Cl)Cl)c2ccc(O)cc2)cc1` [monohydroxymethoxychlorolefin], the “Exp. Log(RBA)” value is reported as −0.63. With `CCC(c1ccc(O)cc1)C(CC)c1ccc(OC)cc1` (stereo not shown) [monomethyl ether hexestrol] the “Exp. Log(RBA)” value was 0.97.
